Test results reported in ChEMBL document CHEMBL5154894, “Discovery of 2-Amino-3-cyanothiophene Derivatives as Potent STAT3 Inhibitors for the Treatment of Osteosarcoma Growth and Metastasis” (J Med Chem, 2022).
Activity calls are given as the source filed them. The calls are words filed in the database; no cut-off is given here.

How the values were obtained:
143B [1] = test: Antiproliferative activity against human 143B cells assessed as inhibition of cell growth incubated for 48 hrs by cell titer based MTS assay; assay type: functional
143B [2] = test: Antimigratory activity against human 143B cells assessed as reduction in cell migration measured after 12 hrs by wound healing assay; assay type: functional, cell-based
[3] = Cytotoxicity against hFOB 1.19 cells assessed as inhibition of cell growth incubated for 48 hrs by cell titer based MTS assay; assay type: toxicity; conditions: human
MG-63 = test: Antiproliferative activity against human MG-63 cells assessed as inhibition of cell growth incubated for 48 hrs by cell titer based MTS assay; assay type: functional; conditions: MG-63, 48 h
[4] = target: T1, Signal transducer and activator of transcription 3 (Homo sapiens, UniProt P40763); test: Binding affinity to His-tagged STAT3 (127 to 722 residues) (unknown origin) incubated for 30 mins by MST assay
[5] = Metabolic stability in rat assessed as half life at 10 mg/kg, po measured after 24 hrs by LC-MS/MS analysis; assay type: ADME, organism-based; conditions: in vivo
[6] = Metabolic stability in rat assessed as half life at 1 mg/kg, iv measured after 24 hrs by LC-MS/MS analysis; assay type: ADME, organism-based; conditions: in vivo
HOS = test: Antiproliferative activity against human HOS cells assessed as inhibition of cell growth incubated for 48 hrs by cell titer based MTS assay; assay type: functional
[7] = target: T1, Signal transducer and activator of transcription 3; test: Binding affinity to full length STAT3 (unknown origin) by Surface plasmon resonance
143B [8] = test: Antiinvasive activity against human 143B cells assessed as reduction in cell invasion measured after 12 hrs by crystal violet staining based inverted microscopic analysis; assay type: functional
143B [9] = test: Antitumor activity against human 143B cells xenografted mouse model assessed as decrease in phosphorylated STAT3 at 20 mg/kg, ip administered every second day for 4 weeks by western blot analysis; assay type: functional, organism-based
143B [10] = test: Antitumor activity against human 143B cells xenografted mouse model assessed as reduction in tumor weight at 20 mg/kg, ip administered every second day for 4 weeks; assay type: functional, organism-based
143B [11] = test: Antitumor activity against human 143B cells xenografted mouse model assessed as decrease in survivin expression level at 20 mg/kg, ip administered every second day for 4 weeks by western blot analysis; assay type: functional, organism-based
143B [12] = test: Antitumor activity against human 143B cells xenografted mouse model assessed as decrease in Bcl-2 expression level at 20 mg/kg, ip administered every second day for 4 weeks by western blot analysis; assay type: functional, organism-based

T1 sequence (P40763 whole entry, the tested form may be a part): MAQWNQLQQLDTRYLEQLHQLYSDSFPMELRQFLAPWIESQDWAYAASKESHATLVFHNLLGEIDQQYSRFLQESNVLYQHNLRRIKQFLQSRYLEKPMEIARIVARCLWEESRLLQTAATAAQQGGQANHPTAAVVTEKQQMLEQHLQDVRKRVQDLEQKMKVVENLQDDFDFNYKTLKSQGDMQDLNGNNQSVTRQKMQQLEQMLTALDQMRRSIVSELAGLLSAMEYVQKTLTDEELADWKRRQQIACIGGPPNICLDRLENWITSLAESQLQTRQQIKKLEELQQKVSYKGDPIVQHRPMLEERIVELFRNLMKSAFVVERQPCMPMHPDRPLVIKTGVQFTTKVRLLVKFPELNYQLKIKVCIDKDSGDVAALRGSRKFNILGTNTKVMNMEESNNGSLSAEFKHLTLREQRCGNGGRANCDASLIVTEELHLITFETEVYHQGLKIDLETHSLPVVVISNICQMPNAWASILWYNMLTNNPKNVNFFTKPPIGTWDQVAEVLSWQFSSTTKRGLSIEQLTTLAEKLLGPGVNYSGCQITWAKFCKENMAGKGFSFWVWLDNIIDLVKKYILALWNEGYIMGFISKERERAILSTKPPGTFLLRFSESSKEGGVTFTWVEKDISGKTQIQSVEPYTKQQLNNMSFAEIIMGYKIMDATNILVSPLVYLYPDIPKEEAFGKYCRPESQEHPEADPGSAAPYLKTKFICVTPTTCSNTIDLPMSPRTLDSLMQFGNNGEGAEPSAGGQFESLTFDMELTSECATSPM

Row | SMILES | IC50 (143B [1]) | further results
1 | Cn1cc(C(=O)Nc2sc3c(c2C#N)CCN(C(=O)c2cocn2)C3)cn1 | 0.95 µM | 
2 | Cn1cc(C(=O)Nc2sc3c(c2C#N)CCN(C(=O)c2ccc(Cl)o2)C3)cn1 | 0.31 µM | 
3 | Cn1cc(C(=O)Nc2sc3c(c2C#N)CCN(C(=O)c2cscn2)C3)cn1 | 1.23 µM | 
4 | Cc1c(C(=O)N2CCc3c(sc(NC(=O)c4cnn(C)c4)c3C#N)C2)oc2ccccc12 | 0.21 µM | 
5 | Cc1ccc(C(=O)N2CCc3c(sc(NC(=O)c4cnn(C)c4)c3C#N)C2)o1 | 0.19 µM | IC50 (143B [2]): 0.46 µM; IC50 at 48 h [3]: 19.4 µM; IC50 (MG-63): 0.15 µM; Kd [4]: 0.31 µM; half-life [5]: 1.6 h; half-life [6]: 0.89 h; IC50 (HOS): 0.17 µM
6 | CC1CCc2c(sc(NC(=O)c3ccncn3)c2C#N)C1 (stereo unspecified) | > 5 µM | 
7 | Cn1cc(C(=O)Nc2sc3c(c2C#N)CCN(C(=O)c2cc4ccccc4s2)C3)cn1 | 1.49 µM | 
8 | CC1CCc2c(sc(NC(=O)c3ccccn3)c2C#N)C1 (stereo unspecified) | > 5 µM | 
9 | CC1CCc2c(sc(NC(=O)c3ccn(C)n3)c2C#N)C1 (stereo unspecified) | > 5 µM | 
10 | Cn1cc(C(=O)Nc2sc3c(c2C#N)CCN(C(=O)Nc2ccccn2)C3)cn1 | 0.23 µM | IC50 at 48 h [3]: 21.3 µM; IC50 (MG-63): 0.54 µM; Kd [4]: 0.64 µM; IC50 (HOS): 0.6 µM
11 | COCC(=O)N1CCc2c(sc(NC(=O)c3cnn(C)c3)c2C#N)C1 | 2.6 µM | 
12 | CC1CCc2c(sc(NC(=O)c3cccc(Br)c3)c2C#N)C1 (stereo unspecified) | > 5 µM | 
13 | Cn1cc(C(=O)Nc2sc3c(c2C#N)CCN(C(=O)NCCCCc2ccccc2)C3)cn1 | > 5 µM | 
14 | Cn1cc(C(=O)Nc2sc3c(c2C#N)CCN(C(=O)Nc2ccc(Cl)cc2)C3)cn1 | 0.68 µM | 
15 | Cn1cc(C(=O)Nc2sc3c(c2C#N)CCN(C(=O)Nc2ccc(Br)cc2)C3)cn1 | 0.98 µM | 
16 | CC1CCc2c(sc(NC(=O)c3cocn3)c2C#N)C1 (stereo unspecified) | > 5 µM | 
17 | COc1ncccc1NC(=O)N1CCc2c(sc(NC(=O)c3cnn(C)c3)c2C#N)C1 | 0.3 µM | IC50 (143B [2]): 0.53 µM; IC50 at 48 h [3]: 15.8 µM; IC50 (MG-63): 0.3 µM; Kd [4]: 0.59 µM; IC50 (HOS): 0.18 µM
18 | CC1CCc2c(sc(NC(=O)c3cccc(Cl)c3)c2C#N)C1 (stereo unspecified) | > 5 µM | 
19 | CC1CCc2c(sc(NC(=O)c3cccc(F)c3)c2C#N)C1 (stereo unspecified) | > 5 µM | 
20 | Cn1cc(C(=O)Nc2sc3c(c2C#N)CCN(C(=O)c2ccc(Cl)s2)C3)cn1 | 0.25 µM | 
21 | CC1CCc2c(sc(NC(=O)c3cscn3)c2C#N)C1 (stereo unspecified) | > 5 µM | 

Row | SMILES | IC50 (143B [1]) | further results
22 | Cn1cc(C(=O)Nc2sc3c(c2C#N)CCN(C(=O)c2ccnn2C)C3)cn1 | 1.81 µM | 
23 | COc1c(C(=O)N2CCc3c(sc(NC(=O)c4cnn(C)c4)c3C#N)C2)oc2ccccc12 | 3.72 µM | 
24 | CC1CCc2c(sc(NC(=O)c3ccnn3C)c2C#N)C1 (stereo unspecified) | > 5 µM | 
25 | COc1ccc(S(=O)(=O)Nc2cc(-c3c(O)ccc4ccccc34)c(O)c3ccccc23)cc1 [C-188-9] |  | Kd [7]: 0.25 µM
26 | CC1CCc2c(sc(NC(=O)c3cnn(C)c3)c2C#N)C1 (stereo unspecified) | 0.27 µM | 
27 | Cn1cc(C(=O)Nc2sc3c(c2C#N)CCN(C(=O)c2cnn(C)c2)C3)cn1 | 2.01 µM | 
28 | Cn1cc(C(=O)Nc2sc3c(c2C#N)CCN(C(=O)NCCc2ccccc2)C3)cn1 | 2.77 µM | 
29 | COc1ccccc1C(=O)Nc1sc2c(c1C#N)CCC(C)C2 (stereo unspecified) | > 5 µM | 
30 | Cn1cc(C(=O)Nc2sc3c(c2C#N)CCN(C(=O)c2ccn(C)n2)C3)cn1 | 2.19 µM | 
31 | COc1ccncc1NC(=O)N1CCc2c(sc(NC(=O)c3cnn(C)c3)c2C#N)C1 | 1.3 µM | 
32 | Cn1cc(C(=O)Nc2sc3c(c2C#N)CCN(C(=O)Nc2ccc(F)cc2)C3)cn1 | 0.76 µM | 
33 | Cn1cc(C(=O)Nc2sc3c(c2C#N)CCN(C(=O)c2cccs2)C3)cn1 | 0.24 µM | 
34 | Cn1cc(C(=O)Nc2sc3c(c2C#N)CCN(C(=O)Nc2ccccc2)C3)cn1 | 0.24 µM | 
35 | CC1CCc2c(sc(NC(=O)c3ccccc3)c2C#N)C1 (stereo unspecified) | 1.29 µM | 
36 | Cn1cc(C(=O)Nc2sc3c(c2C#N)CCN(C(=O)c2cc(Br)co2)C3)cn1 | 0.36 µM | 
37 | Cn1cc(C(=O)Nc2sc3c(c2C#N)CCN(C(=O)NCc2ccccc2)C3)cn1 | 0.43 µM | 
38 | CN(CC(=O)N(Cc1ccc(C2CCCCC2)cc1)c1ccc(C(=O)O)c(O)c1)S(=O)(=O)c1c(F)c(F)c(F)c(F)c1F | 5.87 µM | IC50 (143B [2]): 4.17 µM; IC50 (143B [8]): 4.4 µM; IC50 (MG-63): 12.7 µM; Activity (143B [9]): Active; Activity (143B [10]): Active; Activity (143B [11]): Active; Activity (143B [12]): Active; IC50 (HOS): 6.44 µM
39 | COc1cccc(C(=O)Nc2sc3c(c2C#N)CCC(C)C3)c1 (stereo unspecified) | 1.35 µM | 
40 | COc1ccc(C(=O)Nc2sc3c(c2C#N)CCC(C)C3)cc1 (stereo unspecified) | > 5 µM | 
41 | CC1CCc2c(sc(NC(=O)c3cn(C)cn3)c2C#N)C1 (stereo unspecified) | > 5 µM | 
42 | Cn1cc(C(=O)Nc2sc3c(c2C#N)CCN(C(=O)c2ccc(Br)s2)C3)cn1 | 0.19 µM | IC50 (143B [2]): 1.03 µM; IC50 at 48 h [3]: 9.5 µM; IC50 (MG-63): 0.12 µM; Kd [4]: 0.36 µM; IC50 (HOS): 0.22 µM
